Patent US7595401B2, “Therapeutic compounds and their use in cancer” (Myriad Pharmaceuticals, Inc., priority 2006, dated 2009)

Target: purified human Hsp90
Experiment: Binding Assay: fluorescence polarization with BODIPY-labeled geldanamycin
Conditions: BODIPY-GM 10 nM, Hsp90 30 nM
Procedure, shortened: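 Fluorescence polarization competition with BODIPY-geldanamycin (10 nM final) and human Hsp90 (30 nM final) in HEPES-KOH pH 7.3 buffer with molybdate, NP-40, DTT; 2% DMSO, overnight at room temperature. Read 485/530 nm; percent inhibition from mP normalized to DMSO controls, fluorescent-compound points excluded.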

SMILES	IC50	% Inhibition at 5 μM Compound Concentration
CC(C)(C)NC(=O)N1CCCC(CCn2c(Sc3cc4c(cc3Br)OCO4)nc3c(N)ncnc32)C1 (stereo not shown) [Example 437, 3-(2-{6-Amino-8-[(6-bromo-1,3-benzodioxol-5-yl)thio]-9H-purin-9-yl}ethyl)-N-(tert-butyl)piperidine-1-carboxamide]	0.39 µM	
CC(C)NC(=O)N1CCC(CCn2cnc(N)c3nc(Sc4cc5c(cc4Br)OCO5)nc2-3)CC1 [Example 439, 4-(2-{6-Amino-8-[(6-bromo-1,3-benzodioxol-5-yl)thio]-3H-purin-3-yl}ethyl)-N-isopropylpiperidine-1-carboxamide]		24%
CCNC(=O)N1CCCC(CCn2cnc(N)c3nc(Sc4cc5c(cc4Br)OCO5)nc2-3)C1 (stereo not shown) [Example 440, 3-(2-{6-Amino-8-[(6-bromo-1,3-benzodioxol-5-yl)thio]-3H-purin-3-yl}ethyl)-N-ethylpiperidine-1-carboxamide]		60%
CC(C)NC(=O)N1CCCC(CCn2cnc(N)c3nc(Sc4cc5c(cc4Br)OCO5)nc2-3)C1 (stereo not shown) [Example 441, 3-(2-{6-Amino-8-[(6-bromo-1,3-benzodioxol-5-yl)thio]-3H-purin-3-yl}ethyl)-N-isopropylpiperidine-1-carboxamide]		45%
CC(C)(C)NC(=O)N1CCCC(CCn2cnc(N)c3nc(Sc4cc5c(cc4Br)OCO5)nc2-3)C1 (stereo not shown) [Example 442, 3-(2-{6-Amino-8-[(6-bromo-1,3-benzodioxol-5-yl)thio]-3H-purin-3-yl}ethyl)-N-(tert-butyl)piperidine-1-carboxamide]		4%
CCOC(=O)CNC(=O)N1CCC(CCn2cnc(N)c3nc(Sc4cc5c(cc4Br)OCO5)nc2-3)CC1 [Example 443, Ethyl N-{[4-(2-{6-amino-8-[(6-bromo-1,3-benzodioxol-5-yl)thio]-3H-purin-3-yl}ethyl)piperidin-1-yl]carbonyl}glycinate]		36%
COc1ccc(OC)c(Sc2nc3c(N)ncnc3n2CCN2CCN(C(=O)C(C)(C)C)CC2)c1 [Example 444, 8-[(2,5-Dimethoxyphenyl)thio]-9-{2-[4-(2,2-dimethylpropanoyl)piperazin-1-yl]ethyl}-9H-purin-6-amine]	1.1 µM	
CC(C)N1CCCCC1CCn1c(Sc2cc3c(cc2Br)OCO3)nc2c(N)ncnc21 (stereo not shown) [Example 445, 8-[(6-Bromo-1,3-benzodioxol-5-yl)thio]-9-[2-(1-isopropylpiperidin-2-yl)ethyl]-9H-purin-6-amine]	0.305 µM	
CC(C)N1CCCCC1CCn1cnc(N)c2nc(Sc3cc4c(cc3Br)OCO4)nc1-2 (stereo not shown) [Example 446, 8-[(6-Bromo-1,3-benzodioxol-5-yl)thio]-3-[2-(1-isopropylpiperidin-2-yl)ethyl]-3H-purin-6-amine]		4%
CC(C)CN1CCCCC1CCn1c(Sc2cc3c(cc2Br)OCO3)nc2c(N)ncnc21 (stereo not shown) [Example 447, 8-[(6-Bromo-1,3-benzodioxol-5-yl)thio]-9-[2-(1-isobutylpiperidin-2-yl)ethyl]-9H-purin-6-amine]	0.21 µM	
CC(C)CN1CCCCC1CCn1cnc(N)c2nc(Sc3cc4c(cc3Br)OCO4)nc1-2 (stereo not shown) [Example 448, 8-[(6-Bromo-1,3-benzodioxol-5-yl)thio]-3-[2-(1-isobutylpiperidin-2-yl)ethyl]-3H-purin-6-amine]		45%
CC(C)(C)C(=O)N1CCCC(CCn2c(Sc3cc4c(cc3Br)OCO4)nc3c(N)ncnc32)C1 (stereo not shown) [Example 449, 8-[(6-Bromo-1,3-benzodioxol-5-yl)thio]-9-{2-[1-(2,2-dimethylpropanoyl)piperidin-3-yl]ethyl}-9H-purin-6-amine]	0.2 µM	
CC(C)(C)C(=O)N1CCCC(CCn2cnc(N)c3nc(Sc4cc5c(cc4Br)OCO5)nc2-3)C1 (stereo not shown) [Example 450, 8-[(6-Bromo-1,3-benzodioxol-5-yl)thio]-3-{2-[1-(2,2-dimethylpropanoyl)piperidin-3-yl]ethyl}-3H-purin-6-amine]		57%
CC(C)(C)C(=O)N1CCC(CCn2c(Sc3cc4c(cc3Br)OCO4)nc3c(N)ncnc32)CC1 [Example 451, 8-[(6-Bromo-1,3-benzodioxol-5-yl)thio]-9-{2-[1-(2,2-dimethylpropanoyl)piperidin-4-yl]ethyl}-9H-purin-6-amine]	0.195 µM	
CC(C)(C)C(=O)N1CCC(CCn2cnc(N)c3nc(Sc4cc5c(cc4Br)OCO5)nc2-3)CC1 [Example 452, 8-[(6-Bromo-1,3-benzodioxol-5-yl)thio]-3-{2-[1-(2,2-dimethylpropanoyl)piperidin-4-yl]ethyl}-3H-purin-6-amine]		21%
CC(C)CN1CCC(CCn2c(Sc3cc4c(cc3Br)OCO4)nc3c(N)ncnc32)CC1 [Example 453, 8-[(6-Bromo-1,3-benzodioxol-5-yl)thio]-9-[2-(1-isobutylpiperidin-4-yl)ethyl]-9H-purin-6-amine]	0.7 µM	
CC(C)(C)CC(=O)N1CCCC(CCn2c(Sc3cc4c(cc3Br)OCO4)nc3c(N)ncnc32)C1 (stereo not shown) [Example 454, 8-[(6-Bromo-1,3-benzodioxol-5-yl)thio]-9-{2-[1-(3,3-dimethylbutanoyl)piperidin-3-yl]ethyl}-9H-purin-6-amine]	0.305 µM	
CC(C)(C)OC(=O)N[C@H]1CC[C@H](CCn2c(Sc3cc4c(cc3Br)OCO4)nc3c(N)ncnc32)CC1 [Example 455, tert-Butyl [trans-4-(2-{6-amino-8-[(6-bromo-1,3-benzodioxol-5-yl)thio]-9H-purin-9-yl}ethyl)cyclohexyl]carbamate]	0.06 µM	
CC(C)(C)OC(=O)N1CC(CCn2c(Sc3cc4c(cc3Br)OCO4)nc3c(N)ncnc32)C1 [Example 458, tert-Butyl 3-(2-{6-amino-8-[(6-bromo-1,3-benzodioxol-5-yl)thio]-9H-purin-9-yl}ethyl)azetidine-1-carboxylate]	0.38 µM	
CC(C)(C)OC(=O)N1CC(CCn2cnc(N)c3nc(Sc4cc5c(cc4Br)OCO5)nc2-3)C1 [Example 459, tert-Butyl 3-(2-{6-amino-8-[(6-bromo-1,3-benzodioxol-5-yl)thio]-3H-purin-3-yl}ethyl)azetidine-1-carboxylate]		18%

The remaining lines, values ahead:

IC50	% Inhibition at 5 μM Compound Concentration	SMILES
7.9 µM		CC(C)(C)OC(=O)N1C=C(CCn2c(Sc3cc4c(cc3Br)OCO4)nc3c(N)ncnc32)CCC1 [Example 462, tert-Butyl 5-(2-{6-amino-8-[(6-bromo-1,3-benzodioxol-5-yl)thio]-9H-purin-9-yl}ethyl)-3,4-dihydropyridine-1(2 H)-carboxylate]
	14%	CC(C)(C)OC(=O)N1C=C(CCn2cnc(N)c3nc(Sc4cc5c(cc4Br)OCO5)nc2-3)CCC1 [Example 463, tert-Butyl 5-(2-{6-amino-8-[(6-bromo-1,3-benzodioxol-5-yl)thio]-3H-purin-3-yl}ethyl)-3,4-dihydropyridine-1(2 H)-carboxylate]
0.4 µM		CC(C)(C)OC(=O)N1CCC(CCn2c(Sc3cc4c(cc3Br)OCO4)nc3c(N)ncnc32)C(C)(C)C1 (stereo not shown) [Example 464, tert-Butyl 4-(2-{6-amino-8-[(6-bromo-1,3-benzodioxol-5-yl)thio]-9H-purin-9-yl}ethyl)-3,3-dimethylpiperidine-1-carboxylate]
0.47 µM		Nc1ncnc2c1nc(Sc1cc3c(cc1Br)OCO3)n2CCC1CCNCC1 [Example 465, 8-[(6-bromo-1,3-benzodioxol-5-yl)thio]-9-(2-piperidin-4-ylethyl)-9H-purin-6-amine]
0.06 µM		Nc1ncnc2c1nc(Sc1cc3c(cc1Br)OCO3)n2CCC1CCCNC1 (stereo not shown) [Example 466, 8-[(6-Bromo-1,3-benzodioxol-5-yl)thio]-9-(2-piperidin-3-ylethyl)-9H-purin-6-amine]
	0%	COc1ccc(OC)c(Sc2nc3c(N)ncn(CCC4CCNCC4)c-3n2)c1 [Example 467, 8-[(2,5-Dimethoxyphenyl)thio]-3-(2-piperidin-4-ylethyl)-3 H-purin-6-amine]
	9%	Nc1ncn(CCC2CCNCC2)c2nc(Sc3cc4c(cc3Br)OCO4)nc1-2 [Example 468, 8-[(6-Bromo-1,3-benzodioxol-5-yl)thio]-3-(2-piperidin-4-ylethyl)-3 H-purin-6-amine]
8.8 µM		COc1ccc(OC)c(Sc2nc3c(N)ncnc3n2CCC2CCNCC2)c1 [Example 469, 8-[(2,5-Dimethoxyphenyl)thio]-9-(2-piperidin-4-ylethyl)-9 H-purin-6-amine]
0.28 µM		COc1ccc(OC)c(Sc2nc3c(N)ncnc3n2CCC2CCCNC2)c1 (stereo not shown) [Example 470, 8-[(2,5-Dimethoxyphenyl)thio]-9-(2-piperidin-3-ylethyl)-9 H-purin-6-amine]
0.6 µM		Nc1ncnc2c1nc(Sc1cc3c(cc1Br)OCO3)n2CC=C1CCNCC1 [Example 471, 8-[(6-Bromo-1,3-benzodioxol-5-yl)thio]-9-(2-piperidin-4-ylideneethyl)-9 H-purin-6-amine]
0.07 µM		CC1(C)CNCCC1CCn1c(Sc2cc3c(cc2Br)OCO3)nc2c(N)ncnc21 (stereo not shown) [Example 472, 8-[(6-Bromo-1,3-benzodioxol-5-yl)thio]-9-[2-(3,3-dimethylpiperidin-4-yl)ethyl]-9 H-purin-6-amine]
0.035 µM		Nc1ncnc2c1nc(Sc1cc3c(cc1Br)OCO3)n2CC[C@H]1CCCNC1 [Example 473, 8-[(6-Bromo-1,3-benzodioxol-5-yl)thio]-9-{2-[(3R)-piperidin-3-yl]ethyl}-9 H-purin-6-amine]
0.14 µM		Nc1ncnc2c1nc(Sc1cc3c(cc1Br)OCO3)n2CC[C@@H]1CCCNC1 [Example 474, 8-[(6-Bromo-1,3-benzodioxol-5-yl)thio]-9-{2-[(3S)-piperidin-3-yl]ethyl}-9 H-purin-6-amine]
0.172 µM		Nc1ncnc2c1nc(Sc1cc3c(cc1Br)OCO3)n2CC[C@H]1CCCCN1 [Example 475, 8-[(6-Bromo-1,3-benzodioxol-5-yl)thio]-9-{2-[(2R)-piperidin-2-yl]ethyl}-9 H-purin-6-amine]
